According to patent US20180148648A1, “REACTIVE MESOGENS” (Merck Patent GmbH, priority 2015, published 2018):

Test: Yellowing study by UV-Vis percentage transmission after UV exposure
Type: physicochemical
Settings: 1 wt. % in dichloromethane; percentage transmission across visible range; cured at 0, 100, 500, 1000 and 3000 mJ; FIG. 2
Excerpt: UV-Vis spectroscopy was used to measure the compound yellowing by measuring the percentage transmission for each of the compounds across the visible range. This was done by dissolving 1 wt. % of each compound in a solvent, usually dichloromethane, and measuring the solutions percentage transmission on the Hitachi UV-Vis spectrometer, with air as a baseline. The solutions were then cured at a variety of different doses (0, 100, 500, 1000 and 3000 mJ) and the transmission measured again.
Anhydrous dichloromethane was used to dissolve the mixtures, as it remains unaffected when exposed to UV light. By comparing these percentage transmissions it could be concluded, which compound yellow and to what extent.

change in yellowing when exposed to UV-light | Compound
significant increase in yellowing | C=CC(=O)OCCCCCCOc1ccc(C(=O)Oc2ccc(C#Cc3ccc(OC)cc3)cc2C)cc1 [B]
least amount of change in yellowing | C=CC(=O)OCCCCCCOc1ccc(C(=O)Oc2ccc(C#Cc3ccc(OC)cc3)cc2F)cc1 [RM-1]
least amount of change in yellowing | C=CC(=O)OCCCCCCOc1ccc(C(=O)Oc2ccc(C#Cc3ccc(OC)cc3)cc2Cl)cc1 [A]
